Experimental data taken from PubChem BioAssay AID743395 (Broad Institute, 2014).
Several values for one entry are separate records, joined by “and”; a condition that tells them apart may be missing. Equal entries are not always repeated.

Tested on: HepG2 viability, CellTiter-Glo ATP luminescence, 72 h
Assay: viability loss in human hepatoma cells – cell-based, CellTiter-Glo luminescence, cherry-pick, set 2, cytotoxicity control, dose response (AID 743395)

Row | SMILES | AC35
1 | COc1cccc2c1C(=O)c1c(O)c3c(c(O)c1C2=O)C[C@](O)(C(C)=O)C[C@H]3O[C@@H]1C[C@@H](N)[C@@H](O)[C@@H](C)O1 | 0.0738 µM
2 | CCN(CC)C(=O)c1oc2ccc(S(=O)(=O)N3CC(C)CC(C)C3)cc2c1C (stereo not given) | 12.9 µM
3 | CCN(CC)CCn1c2ccccc2c2nc3ccccc3nc21 | 19.9 µM
4 | NC(=S)NN=Cc1nccc2c(N)cccc12 | 4.16 µM
5 | CCCC(=O)NC(NC(=S)Nc1ccc(N=Nc2ccccc2)cc1)C(Cl)(Cl)Cl (stereo not given) | 5.73 µM
6 | C[n+]1c2cc(N)ccc2cc2ccc(N)cc21 | 1.17 µM and 2.2 µM
7 | C[C@H]1CCC/C=C/[C@@H]2C[C@H](O)C[C@H]2[C@H](O)/C=C/C(=O)O1 | 0.115 µM
8 | CC1(C)CCN2CCC(C)(C)c3c(O)ccc1c32 | 6.54 µM
9 | O=C(C1CC1)N1CC(=O)N2[C@H](CO)[C@@H](c3ccc(-c4ccccc4F)cc3)[C@@H]2C1 | 18.9 µM
10 | COc1ccc2c3c([nH]c2c1)[C@H](CO)N(C(=O)C1CCOCC1)CC31CCN(Cc2cccc(F)c2)CC1 | 2.74 µM
11 | Cc1onc(-c2ccccc2Cl)c1C(=O)N1CCN(c2cccc(Cl)c2)CC1 | 13.5 µM
12 | O=C(N/N=C/c1c(O)ccc2ccccc12)c1ccc(CO)nc1 | 5.89 µM
13 | COc1ccc(OC)c2[nH]c(C(=O)N/N=C/c3ccccc3O)cc12 | 3.77 µM
14 | Cc1ccc(COc2ccccc2-c2cc(C(=O)N/N=C/c3cccnc3)[nH]n2)cc1 | 14.7 µM
15 | COc1cccc(-c2cc3nc(-c4ccccc4)cc(=O)n3[nH]2)c1 | 7.55 µM
16 | CCC(=O)NC(c1ccc(C)cc1)c1ccc2cccnc2c1O (stereo not given) | 1.42 µM
17 | COc1cccc(C2c3cc4c(cc3OC(NNC(N)=O)C2C)OCO4)c1O (stereo not given) | 14.3 µM
18 | CC(=NNC(=S)N(Cc1ccccn1)Cc1ccccn1)c1cnccn1 | 2.87 µM
19 | O=C(C1CCCCC1)N1CC(=O)N2[C@@H](CO)[C@H](c3ccc(C#Cc4cccc(F)c4)cc3)[C@@H]2C1 | 16.4 µM
20 | CC(C)C[C@H]1CN([C@@H](CC(C)C)CN2CCC[C@@H]2CN2C(=S)NC[C@@H]2Cc2ccc(O)cc2)C(=S)N1CCc1ccccc1 | 19.2 µM
21 | O=C(NCc1ccccc1)C1Cc2c(-c3ccc(Cl)cc3)ccnc2O1 (stereo not given) | 9.8 µM
22 | CC(C)C[C@H]1CN([C@@H](Cc2ccc(O)cc2)CN2CCC[C@H]2CN2C(=O)C(=O)NC[C@@H]2Cc2ccccc2)C(=O)C(=O)N1CC1CCCCC1 | 15 µM
23 | CCOC(=O)c1sc(Nc2nc(C)cc(C)n2)nc1C | 11.3 µM
24 | COc1ccc(S(=O)(=O)N(C(=O)C(C)C)c2ccc3oc(=O)sc3c2)cc1 | 17.1 µM
25 | COc1ccc(-c2ccc3c(c2)[C@H]2[C@H](CCN2S(=O)(=O)c2ccc(OC)cc2)[C@H](CO)N3C)cc1 | 6.5 µM
26 | COC(=O)c1cn(NC(=O)c2cc([N+](=O)[O-])ccc2F)c(=O)c2ccccc12 | 0.521 µM
27 | Cn1cccc1/C=C1\SC(=Nc2cccc(O)c2)NC1=O | 14.2 µM

Row | SMILES | AC35
28 | CCN(CC)CCCNc1nc2ccccc2c2[nH]c3ccc(OC)cc3c12 | 2.39 µM
29 | O=C1c2ccc3c4c(ccc(c24)C(=O)N1CCCCO)C(=O)N(CCCCO)C3=O | 2.63 µM
30 | Nc1[nH]c(C(=O)c2ccccc2)c(-c2ccccc2C(F)(F)F)c1C(=O)NCCc1c[nH]c2ccccc12 | 22.4 µM
31 | CCc1ccc(OCCNc2cc(N3CCNC(C)C3)ccc2[N+](=O)[O-])cc1 (stereo not given) | 9.58 µM
32 | CC(=O)Nc1ccc(Nc2c3ccccc3nc3ccccc23)cc1 | 5.33 µM
33 | C[C@@H]1CN([C@H](C)CO)S(=O)(=O)c2ccc(-c3ccccc3)cc2O[C@H]1CN(C)Cc1ccccn1 | 16.7 µM
34 | COc1ccc(C(=O)OCC(=O)N2C(C)CCCC2C)cc1S(=O)(=O)N1CCOCC1 (stereo not given) | 18.7 µM
35 | O=C1CC(c2ccccc2)CC2=C1C=Nc1ccccc1N2 (stereo not given) | 18.3 µM
36 | CC(=O)NC(c1ccc(Cl)cc1)c1ccc2cccnc2c1O (stereo not given) | 2.14 µM
37 | C[C@H]1CN([C@@H](C)CO)S(=O)(=O)c2ccc(C#Cc3ccc(F)cc3)cc2O[C@H]1CN(C)C(=O)NC1CCCC1 | 19.1 µM
38 | Nc1c2ccccc2nc2ccccc12 | 2.63 µM
39 | Cc1ccc(-n2nnnc2SCC(=O)NC(C(=O)O)(c2ccccc2)c2ccccc2)cc1C | 15 µM
40 | COc1cc(C2CC(=O)N(c3ccc(C)cc3)C(=O)C2)cc(OC)c1OC | 10.7 µM
41 | COC(=O)CSC1=C(C#N)C(c2ccc(C)o2)CC(=O)N1 (stereo not given) | 19.1 µM
42 | COc1cc(OC)cc(C(=O)c2c(C)c(C#N)c3ccccn23)c1 | 9.29 µM
43 | CCN(CC)c1ccc(/C=N/NC(=O)c2cnccn2)c(O)c1 | 1.61 µM
44 | CCOC(=O)c1c(C)[nH]c(C(=O)N/N=C\c2ccccc2O)c1C | 2.34 µM
45 | CC(C)CC#Cc1ccc([C@@H]2[C@@H](CO)N3CCCCN(C(=O)NC4CCCC4)C[C@H]23)cc1 | 9.9 µM
46 | CC(C)Oc1ncnc2c1[nH]c1ccccc12 | 8.5 µM
47 | Cc1occc1C(=O)N/N=C/c1c(O)ccc2ccccc12 | 6.44 µM
48 | COc1ccc(-c2cc(NC=O)c3ncc(-c4ccc(OC)c(OC)c4)n3c2)cc1 | 6.95 µM
49 | COc1ccc(S(=O)(=O)Nc2cccc3ccc(O)cc23)cc1 | 13.8 µM
50 | COc1ccc(NC(=O)C(=O)NCC2CCCN2S(=O)(=O)c2cccs2)cc1 (stereo not given) | 12.8 µM
51 | N#Cc1c(-c2ccc(F)cc2)c(-c2ccc(F)cc2)nn(CCO)c1=O | 4.03 µM
52 | CCN(CC)CCC(=O)Nc1cccc2c1C(=O)c1ccccc1C2=O | 6.39 µM
53 | Cc1cccc(N2CCN(C(=O)c3c(-c4ccccc4)noc3C)CC2)c1C | 4.42 µM
54 | CN(C)CCNc1ccc2ncn3c4ccc(O)cc4c(=O)c1c23 | 2.3 µM

Row | SMILES | AC35
55 | Cc1ccc(-c2nn(-c3ccccc3)cc2C(=O)N2CCN(c3ccccn3)CC2)cc1 | 12.3 µM
56 | COc1ccc(CN(C)C[C@H]2OCCCC[C@H](C)Oc3ccc(NC(=O)Nc4ccc(C(F)(F)F)cc4)cc3C(=O)N([C@H](C)CO)C[C@H]2C)cc1 | 10.1 µM
57 | C[C@@H]1O[C@@H](O[C@@H]2C=C3CC[C@@H]4C(CC[C@]5(C)[C@@H](c6ccc(=O)oc6)CC[C@]45O)[C@@]3(C)CC2)[C@H](O)[C@H](O)[C@H]1O (stereo not given in full) | 0.116 µM
58 | CC12CCC(CC1O)C2C(=O)O (stereo not given) | 17.9 µM
59 | CN1/C(=C\C=C2/SC(=S)NC2=O)C(C)(C)c2ccccc21 | 17.9 µM
60 | CC1=Nc2cc(C(=O)NCC3CCCO3)ccc2Sc2ccc(C)cc21 (stereo not given) | 13.5 µM
61 | COc1ccc(CNS(=O)(=O)c2cc(-c3cc(C)no3)ccc2C(C)C)cc1 | 7.14 µM
62 | COc1cccc2c1C(=O)c1c(O)c3c(c(O)c1C2=O)C[C@@](O)(C(C)=O)C[C@@H]3O[C@H]1C[C@H](N)[C@H](O)[C@H](C)O1 | 0.156 µM
63 | N#CC1=C(N)Oc2cc(N)ccc2C1c1cccc(F)c1 (stereo not given) | 6.38 µM
64 | CO[C@@]12[C@@H]3N[C@@H]3CN1C1=C(C(=O)C(N)=C(C)C1=O)[C@@H]2COC(N)=O | 9.61 µM
65 | CCN(CC)CCCNc1ccc2ncn3c4ccc(O)cc4c(=O)c1c23 | 1.03 µM
66 | Cc1cccc(N2CCN(S(=O)(=O)c3cc(-c4cc(C)no4)ccc3C)CC2C)c1 (stereo not given) | 17.4 µM
67 | COc1ccccc1Nc1c2c(nc3ccccc13)CCC2 | 7.12 µM
68 | NC(=O)N=Nc1c2[nH]c3ccccc3nc-2c2ccccc12 | 16.6 µM
69 | Cc1ccc(S(=O)(=O)N2CCCCC2CCNC(=O)C(=O)NCc2ccccc2)cc1 (stereo not given) | 12.5 µM
70 | CC1(C(=O)NCc2ccco2)Cc2c(-c3ccc4c(c3)OCO4)ccnc2O1 (stereo not given) | 9.85 µM
71 | O=c1[nH]c(/C=C/c2ccccc2F)nc2ccccc12 | 9.06 µM
72 | COc1cc(NC(=O)N2CCNC2=O)cc(C(=O)Nc2cccc(C(F)(F)F)c2)c1 | 1.54 µM
73 | CCOC(=O)c1c(C)[nH]c(C(=O)N/N=C/c2ccc(OC)c(OC)c2)c1C | 6.01 µM
74 | Cc1ccc(C)c(C2NC(=O)c3ccccc3N2)c1 (stereo not given) | 5.13 µM
75 | c1ccc2c(c1)C1=NCCN1c1ccccc1-2 | 3.01 µM
76 | O=C(Nc1ccc(OC(F)(F)F)cc1)c1ccc2c(c1)no[n+]2[O-] | 17.6 µM
77 | CCOc1ccc(-c2cc(C(=O)N3CCN(c4ccccn4)CC3)c3ccccc3n2)cc1 | 10.9 µM
78 | Oc1ccc(/C=N/Nc2nc(-c3ccccc3F)nc3ccccc23)c(O)c1 | 15.6 µM
79 | CCN(CC)c1ccc(/C=N/NC(=O)c2ccco2)c(O)c1 | 1.13 µM
80 | COc1ccccc1NC1=C(NC(C)=O)C(=O)c2ccccc2C1=O | 12.2 µM
81 | Cc1cc(Br)cc(/C=N/NC(=O)c2ccc3c(c2)OCO3)c1O | 8 µM

Row | SMILES | AC35
82 | c1ccc2c(NCCCN3CCOCC3)c3ccccc3nc2c1 | 2.78 µM
83 | CCOc1ccc(C(=O)COC(=O)Cc2n[nH]c(=O)c3ccccc23)cc1 | 19.3 µM
84 | COc1ccc(C2c3ccc4ccccc4c3Oc3ncn(CCCO)c(=N)c32)cc1OC (stereo not given) | 18.7 µM
85 | COc1ccc(C2C3=C(COC3=O)Oc3cc4c(cc32)OCO4)cc1OC (stereo not given) | 10.9 µM
86 | CC(=O)Oc1c(C)cc(Cl)cc1C(=O)Nc1ccc([N+](=O)[O-])cc1Cl | 0.712 µM
87 | CCN(c1cccc(C)c1)S(=O)(=O)c1ccc(-c2cc(C)no2)s1 | 8.73 µM
88 | COc1ccc2c(c1)sc(N)[n+]2Cc1cc(C)cc2cccnc12 | 12.4 µM
89 | COc1cc(C(=O)Nc2ccc3c(c2)ncn3C)cc(OC)c1OC | 14.5 µM
90 | CC1CCN(C(=O)C2COc3ccccc3O2)CC1 (stereo not given) | 21.8 µM
91 | CN(Cc1ccccc1)S(=O)(=O)c1ccc(NC(=S)NC(=O)C2CCCC2)cc1 | 9.62 µM
92 | COc1c(C=O)c2c(c(OC)c1OC)-c1ccc(OC)c(=O)cc1C(NC(C)=O)CC2 (stereo not given) | 3.12 µM
93 | CC1(S(=O)(=O)O)CC(=O)c2ccccc2C1=O (stereo not given) | 20.1 µM
94 | CCC(COC(=O)c1cc(OC)c(OC)c(OC)c1)(c1ccccc1)N(C)C (stereo not given) | 18.4 µM
95 | O=C(CN1CCCC1)N/N=C/c1c(O)ccc2ccccc12 | 12.6 µM
96 | COc1ccc(-c2ccnc(-c3ccc(O)cc3)n2)cc1 | 10.1 µM
97 | COc1ccc(C)cc1Nc1c2c(nc3ccccc13)CCC2 | 8.79 µM
98 | O=C(C[C@@H]1CC[C@H]2[C@@H](COC[C@H](O)CN2Cc2ccc3c(c2)OCO3)O1)Nc1ccc(-c2ccccc2)cc1 | 16.8 µM
99 | C=CCCC(=O)Nc1nc(C)c(-c2csc(Nc3cc(OC)ccc3OC)n2)s1 | 5.68 µM
100 | COCC(=O)N1CC2(CCN(Cc3ccccc3)CC2)c2c([nH]c3cc(OC)ccc23)[C@H]1CO | 5.27 µM
101 | CC(C)(C)c1ccc(/C=C/C(=O)c2ccc(NC3=NCCCS3)cc2)cc1 | 18.2 µM
102 | COC(=O)/C=C/c1ccccc1S(=O)(=O)N(Cc1ccccc1)Cc1ccco1 | 15.4 µM
103 | Cc1ccc(C(=O)NC(=S)NNC(=O)c2ccccc2O)cc1 | 17.2 µM
104 | CC(C)Nc1ccc(Nc2ccnc3cc4ccccc4cc23)cc1 | 2.44 µM
105 | COCCNC(=O)c1cc(-c2ccc(-c3ccccc3)cc2)nc2ccccc12 | 17.9 µM
